Source: US10239880B2, “Cyclopenta[d]pyrimidines and substituted cyclopenta[d]pyrimidines as antitubulin and microtubule targeting agents, monocyclic pyrimidines as tubulin inhibitors, and pyrrolopyrimidines as targeted antifolates and tubulin and multiple receptor tyrosine kinase inhibition and antitumor agents” (Duquesne University of the Holy Spirit, priority 2015, dated 2019)
Structures can show the parent of a compound that is named as a salt. Where two headings read alike, the source gives them in different places.

Tests used:
[1] = target: PDGFR-β (Homo sapiens, UniProt P09619); assay: Kinase inhibition, whole-cell assay, PDGFR-β; format: cell-based
Sequence of PDGFR-β (P09619 33-1106, species assumed): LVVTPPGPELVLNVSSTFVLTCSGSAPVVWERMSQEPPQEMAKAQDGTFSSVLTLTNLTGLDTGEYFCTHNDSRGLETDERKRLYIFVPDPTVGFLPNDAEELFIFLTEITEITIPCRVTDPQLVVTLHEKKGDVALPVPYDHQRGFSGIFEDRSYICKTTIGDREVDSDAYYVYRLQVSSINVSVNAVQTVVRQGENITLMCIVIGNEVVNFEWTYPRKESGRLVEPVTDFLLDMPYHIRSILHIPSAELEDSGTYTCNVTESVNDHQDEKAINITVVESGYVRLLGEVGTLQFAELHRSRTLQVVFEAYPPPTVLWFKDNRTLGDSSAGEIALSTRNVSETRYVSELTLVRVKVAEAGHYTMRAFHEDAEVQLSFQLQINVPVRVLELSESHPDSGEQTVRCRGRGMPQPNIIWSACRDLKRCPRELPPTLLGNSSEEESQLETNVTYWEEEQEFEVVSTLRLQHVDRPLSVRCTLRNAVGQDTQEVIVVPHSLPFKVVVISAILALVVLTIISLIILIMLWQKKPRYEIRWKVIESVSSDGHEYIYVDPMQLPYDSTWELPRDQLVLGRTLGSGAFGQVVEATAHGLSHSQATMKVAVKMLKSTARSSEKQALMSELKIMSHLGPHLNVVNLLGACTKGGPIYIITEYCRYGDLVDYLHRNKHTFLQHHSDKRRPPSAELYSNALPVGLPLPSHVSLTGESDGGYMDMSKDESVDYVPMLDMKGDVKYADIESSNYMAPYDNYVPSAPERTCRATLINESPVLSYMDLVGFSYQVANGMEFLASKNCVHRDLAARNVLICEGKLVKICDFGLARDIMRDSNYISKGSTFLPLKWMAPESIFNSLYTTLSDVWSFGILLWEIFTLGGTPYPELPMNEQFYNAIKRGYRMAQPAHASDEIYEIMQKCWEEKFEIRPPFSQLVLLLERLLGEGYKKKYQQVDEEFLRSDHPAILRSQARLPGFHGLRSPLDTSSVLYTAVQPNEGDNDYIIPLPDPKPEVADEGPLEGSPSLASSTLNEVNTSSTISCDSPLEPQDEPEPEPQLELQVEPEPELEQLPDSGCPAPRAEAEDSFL

[2] = test system: U251; assay: U251 cytotoxicity; format: cell-based; conditions: Homo sapiens, U-251; Table 3b; unit inferred
[3] = target: VEGFR2 (Homo sapiens, UniProt P35968); assay: Kinase inhibition, whole-cell assay, VEGFR2 (Flk-1); format: cell-based; conditions: Table 3b; unit inferred
Sequence of VEGFR2 (P35968 20-1356, species assumed): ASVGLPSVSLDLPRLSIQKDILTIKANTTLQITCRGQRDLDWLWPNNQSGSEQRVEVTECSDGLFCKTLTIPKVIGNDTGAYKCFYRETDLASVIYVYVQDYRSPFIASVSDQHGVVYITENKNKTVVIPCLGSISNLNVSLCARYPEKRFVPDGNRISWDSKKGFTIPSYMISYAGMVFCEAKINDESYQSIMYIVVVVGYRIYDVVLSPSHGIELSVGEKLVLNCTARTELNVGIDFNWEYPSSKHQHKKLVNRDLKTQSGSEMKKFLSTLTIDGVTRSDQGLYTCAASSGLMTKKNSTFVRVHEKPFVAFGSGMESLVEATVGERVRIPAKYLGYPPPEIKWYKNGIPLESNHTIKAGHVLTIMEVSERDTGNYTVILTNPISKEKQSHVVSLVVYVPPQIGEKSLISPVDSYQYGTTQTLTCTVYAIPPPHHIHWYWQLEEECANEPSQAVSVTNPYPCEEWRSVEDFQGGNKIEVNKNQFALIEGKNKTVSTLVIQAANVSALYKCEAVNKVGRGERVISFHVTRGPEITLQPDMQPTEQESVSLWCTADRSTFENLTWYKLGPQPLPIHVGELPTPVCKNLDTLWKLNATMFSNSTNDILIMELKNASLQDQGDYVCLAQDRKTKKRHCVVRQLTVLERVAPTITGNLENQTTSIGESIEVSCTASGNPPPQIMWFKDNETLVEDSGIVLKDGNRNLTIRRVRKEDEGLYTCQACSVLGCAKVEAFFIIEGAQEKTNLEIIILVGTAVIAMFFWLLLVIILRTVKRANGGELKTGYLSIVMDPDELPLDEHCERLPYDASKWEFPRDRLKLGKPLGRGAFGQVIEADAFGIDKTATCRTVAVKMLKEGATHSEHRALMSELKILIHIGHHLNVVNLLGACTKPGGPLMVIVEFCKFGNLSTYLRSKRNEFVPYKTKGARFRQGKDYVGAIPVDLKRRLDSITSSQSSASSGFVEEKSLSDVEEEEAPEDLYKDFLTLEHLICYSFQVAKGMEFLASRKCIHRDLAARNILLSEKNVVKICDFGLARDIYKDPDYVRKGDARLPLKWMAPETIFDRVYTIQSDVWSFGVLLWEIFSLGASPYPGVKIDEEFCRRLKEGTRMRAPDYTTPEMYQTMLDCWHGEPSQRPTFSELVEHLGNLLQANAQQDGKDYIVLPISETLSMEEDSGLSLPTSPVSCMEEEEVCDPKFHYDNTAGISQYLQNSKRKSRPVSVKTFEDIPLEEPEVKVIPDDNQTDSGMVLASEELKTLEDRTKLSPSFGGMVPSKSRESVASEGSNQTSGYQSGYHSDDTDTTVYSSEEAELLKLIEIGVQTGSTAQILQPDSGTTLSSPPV

[4] = test system: CAM; assay: CAM (gi50); conditions: Table 3b; unit inferred
[5] = target: EGFR (Homo sapiens, UniProt P00533); assay: Kinase inhibition, whole-cell assay, EGFR; format: cell-based
Sequence of EGFR (P00533 25-1210, species assumed): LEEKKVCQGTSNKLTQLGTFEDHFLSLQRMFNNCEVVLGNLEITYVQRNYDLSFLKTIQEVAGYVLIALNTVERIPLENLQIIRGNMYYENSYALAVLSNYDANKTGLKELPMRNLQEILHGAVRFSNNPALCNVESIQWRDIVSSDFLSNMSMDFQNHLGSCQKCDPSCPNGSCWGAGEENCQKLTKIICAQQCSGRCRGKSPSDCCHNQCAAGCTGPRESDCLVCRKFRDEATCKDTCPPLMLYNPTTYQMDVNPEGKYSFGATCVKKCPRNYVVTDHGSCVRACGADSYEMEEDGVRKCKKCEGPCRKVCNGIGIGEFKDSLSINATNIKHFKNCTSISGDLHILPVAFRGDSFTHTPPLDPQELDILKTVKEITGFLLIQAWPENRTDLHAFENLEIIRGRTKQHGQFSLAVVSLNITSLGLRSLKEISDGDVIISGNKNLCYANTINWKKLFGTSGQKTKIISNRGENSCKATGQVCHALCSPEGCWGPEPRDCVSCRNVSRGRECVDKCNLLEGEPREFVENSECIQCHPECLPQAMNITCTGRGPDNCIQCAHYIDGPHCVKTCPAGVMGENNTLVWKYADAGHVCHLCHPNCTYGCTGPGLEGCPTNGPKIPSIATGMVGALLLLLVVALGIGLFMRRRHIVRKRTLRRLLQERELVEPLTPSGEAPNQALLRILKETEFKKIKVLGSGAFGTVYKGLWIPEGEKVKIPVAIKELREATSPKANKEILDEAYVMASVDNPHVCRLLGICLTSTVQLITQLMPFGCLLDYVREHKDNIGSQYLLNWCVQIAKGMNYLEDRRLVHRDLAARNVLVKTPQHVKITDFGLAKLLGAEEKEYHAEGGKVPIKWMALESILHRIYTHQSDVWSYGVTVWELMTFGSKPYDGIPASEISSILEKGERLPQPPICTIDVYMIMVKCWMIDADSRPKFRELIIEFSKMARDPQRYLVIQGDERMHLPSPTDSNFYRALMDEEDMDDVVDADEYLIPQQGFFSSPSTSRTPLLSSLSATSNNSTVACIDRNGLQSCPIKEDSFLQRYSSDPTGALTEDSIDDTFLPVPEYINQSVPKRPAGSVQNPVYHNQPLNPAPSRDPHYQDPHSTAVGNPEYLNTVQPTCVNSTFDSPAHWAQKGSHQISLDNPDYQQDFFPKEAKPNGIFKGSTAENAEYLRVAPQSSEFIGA

[6] = test system: A-10 cells; assay: Microtubule depolymerization, cell-based phenotypic assay in A-10 cells
[7] = test system: A431; assay: A431 cytotoxicity; conditions: Homo sapiens
[8] = test system: MDA-MB-435 cancer cells; assay: Antiproliferative effect in MDA-MB-435 cancer cells (SRB assay); format: cell-based
[9] = test system: Parental HeLa; assay: Antiproliferative activity, parental HeLa; format: cell-based; conditions: Homo sapiens, Table 7, read-out: IC50 ± SD Parental HeLa
Text: (§1) Another clinically relevant drug resistance mechanism of tubulin-targeting agents is the overexpression of the βIII isotype of tubulin.

[10] = test system: Pgp expressing SK-OV-3 MDR1-6-6; assay: Antiproliferative activity, Pgp expressing SK-OV-3 MDR1-6-6; format: cell-based; conditions: Homo sapiens, SK-OV-3; Table 6; read-out: IC50 ± SD Pgp expressing SK-OV-3 MDR1-6-6
[11] = test system: β-III overexpressing HeLa; assay: Antiproliferative activity, β-III overexpressing HeLa; format: cell-based; conditions: for IC50: Homo sapiens, HeLa, Table 7, read-out: IC50 ± SD β-III overexpressing HeLa
Text: as §1

[12] = test system: Parental SK-OV-3; assay: Antiproliferative activity, parental SK-OV-3; format: cell-based; conditions: Homo sapiens, Table 6, read-out: IC50 ± SD Parental SK-OV-3
[13] = test system: PC43-10 (RFC); assay: Proliferation inhibition, RFC-expressing PC43-10 cells; format: cell-based, Chinese hamster; conditions: Table 11
Text: (§2) AGF215, AGF234 and AGF263 were compared to AGF23 as inhibitors of proliferation of engineered Chinese hamster ovary (CHO) cells expressing human PCFT (R2/PCFT4), FRα (RT16), or RFC (PC43-10).

[14] = test system: RT16 (FRα); assay: Proliferation inhibition, FRα-expressing RT16 cells; format: cell-based, Chinese hamster
Text: as §2

[15] = test system: D4 (FRβ); assay: Proliferation inhibition, FRβ-expressing D4 cells; format: cell-based
[16] = test system: KB (RFC/FRα/PCFT); assay: Growth inhibition of KB tumor cells; format: cell-based, human
Protocol: Cell proliferation was assayed with CellTiter-Blue™ with a fluorescent plate reader.

[17] = Table 3b, unit inferred, read-out: PDGFR kinase inhibition
[18] = Table 3b, unit inferred, read-out: EGFR kinase inhibition
[19] = A-431, read-out: A431 cytotoxicity, Table 3b, unit inferred
[20] = Rattus norvegicus, A10, Table 3a, unit inferred, read-out: EC50 for Microtubule Depolymerization in A · 10 Cells
[21] = Homo sapiens, Table 3a, unit inferred, read-out: IC50 ± SD in MDA-435 Cells
[22] = with folic acid (+FA), read-out: IC50 FRα RT16 (+FA)
[23] = Table 11, read-out: IC50 FRβ D4
[24] = with folic acid (+FA), read-out: IC50 FRβ D4 (+FA)
[25] = Table 11, read-out: IC50 RFC/FRα/PCFT KB
[26] = with folic acid (+FA), read-out: IC50 RFC/FRα/PCFT KB (+FA)
[27] = Rattus norvegicus, A10, read-out: EC50 in A-10 cells (Concentration that causes 50% tubulin loss in A-10 cells), Table 4, Section II compounds
[28] = Table 3a, unit inferred, read-out: EC50 for Microtubule Depolymerization in A · 10 Cells
[29] = Table 3a, unit inferred, read-out: IC50 ± SD in MDA-435 Cells

In the case of `CSc1ccc(N(C)c2nc(C)nc3ccn(C)c23)cc1` [Table 3a 26], the IC50 [1, 17] is reported as 450 ± 53.1 nM, the IC50 [2] is reported as 35.1 ± 6.3 nM and the IC50 [3] is reported as 544 ± 77.2 nM. It also gave a GI50 [4] of 363 ± 56.9 nM, an IC50 [5, 18] of 54.8 ± 9.2 nM and an EC50 ([6]; Rattus norvegicus, A10, Table 3a, lines that print nM, read-out: EC50 for Microtubule Depolymerization in A · 10 Cells) of 23 nM. It also gave an IC50 [7, 19] of 18.8 ± 4.1 nM and an IC50 ([8]; Homo sapiens, Table 3a, cells that print nM, read-out: IC50 ± SD in MDA-435 Cells) of 6.2 nM.

With `COc1ccc(N(C)c2nc(C)nc3c2CCC3)cc1C` [Compound 7] the IC50 [9] was 23 ± 1 nM, the IC50 [10] was 47.5 ± 2.4 nM and the IC50 [11] was 18.8 ± 1.6 nM. For the same compound, the IC50 [12] was 23.9 ± 2.5 nM.

`CSc1ccc(N(C)c2nc(Cl)nc3ccn(C)c23)cc1` [Table 3a 27] gave an IC50 [1, 17] of 10.8 ± 1.6 nM, an IC50 [2] of 11.3 ± 1.8 nM and an IC50 [3] of 33.9 ± 3.9 nM. It also gave a GI50 [4] of 45.2 ± 5.2 nM, an IC50 [5, 18] of 16.4 ± 2.6 nM and an EC50 [6, 20] of 2.7 nM. The IC50 [7, 19] was 8.2 ± 1.3 nM and the IC50 [8, 21] was 3.6 ± 0.3 nM.

For `Nc1nc2[nH]c(CCCNc3ccc(C(=O)N[C@@H](CCC(=O)O)C(=O)O)cc3)cc2c(=O)[nH]1` [AGF234], the IC50 [13] was 670 nM, the “IC50 RFC PC43-10” value [13] was “low level of activity” and the IC50 ([14]; Table 11, read-out: IC50 FRα RT16) was 1.4 nM. For the same compound, the IC50 [14, 22] was 136 nM, the IC50 [15, 23] was 0.84 nM and the IC50 [15, 24] was 316 nM. The IC50 [16, 25] was 0.74 nM and the IC50 [16, 26] was 938 nM.

`COc1ccc2c(c1)CCCN2c1nc(Cl)nc2ccn(C)c12` [Table 3a 23] gave an IC50 [1, 17] of 8.4 ± 0.8 nM, an IC50 [2] of 3.8 ± 0.5 nM and an IC50 [3] of 15.2 ± 2 nM. It also gave a GI50 [4] of 7.6 ± 1 nM, an IC50 [5, 18] of 9 ± 0.9 nM and an EC50 [6, 20] of 3.31 nM. It also gave an IC50 [7, 19] of 3 ± 0.3 nM and an IC50 [8, 21] of 4.1 ± 0.1 nM.

`Nc1nc2[nH]c(CCCOc3ccc(C(=O)N[C@@H](CCC(=O)O)C(=O)O)cc3)cc2c(=O)[nH]1` [AGF215] was tested, and the IC50 [13] was over 1000 nM, the “IC50 RFC PC43-10” value [13] was “inactive” and the IC50 [14, 22] was over 1000 nM. The IC50 [15, 23] was 3.8 nM, the IC50 [15, 24] was over 1000 nM and the IC50 [16, 25] was 1.54 nM. The IC50 [16, 26] was 767 nM.

`CNc1ccc(N(C)c2nc(C)nc3c2CCC3)cc1` [Section II compound 8] showed an IC50 [9] of 31 ± 1.6 nM, an IC50 [10] of 49.7 ± 7.9 nM and an IC50 [11] of 19.1 ± 3.9 nM. For the same compound, the “Rr*” value ([11]; relative resistance, β-III overexpressing HeLa vs parental HeLa) was 0.6 and the IC50 [12] was 36.3 ± 3.3 nM.

`COc1ccc(N(C)c2nc(Cl)nc3ccn(C)c23)cc1` [Table 3a 19] gave an IC50 [1, 17] of 4.2 ± 0.9 nM, an IC50 [2] of 3.1 ± 0.4 nM and an IC50 [3] of 12.4 ± 1.2 nM. The GI50 [4] was 9.3 ± 0.91 nM, the IC50 [5, 18] was 6.3 ± 0.9 nM and the EC50 [6, 20] was 1.48 nM. For the same compound, the IC50 [7, 19] was 2.1 ± 0.3 nM and the IC50 [8, 21] was 1.3 nM.

In the case of `CO[C@H]1CC[C@H](N(C)c2nc(C)nc3c2CCC3)CC1` [Compd 13], the EC50 [6, 27] is reported as over 10000 nM.

For `COc1ccc(CN(C)c2nc(C)nc3c2CCC3)cc1` [Section II compound 12], the EC50 [6, 27] was 11300 nM.

In the case of `COc1cccc2cc(N(C)c3nc(C)nc4ccn(C)c34)ccc12` [Table 3a 14], the EC50 [6, 28] is reported as over 10000 nM and the IC50 [8, 29] is reported as 2000 nM.

Work on `COc1ccc(N(C)c2nc(C)nc3cc[nH]c23)cc1` [1•HCl] yielded an IC50 ([1]; Table 1, IC50 ± SD, read-out: Kinase inhibition IC50 [whole-cell assays] PDGFR-β) of 250 ± 20.6 nM, an IC50 ([5]; Table 1, IC50 ± SD, read-out: Kinase inhibition IC50 [whole-cell assays] EGFR) of 29.5 ± 3.1 nM and an EC50 ([6]; Rattus norvegicus, A10, read-out: Microtubule depolymerization EC50) of 1200 nM. The IC50 ([7]; A-431, read-out: A431 cytotoxicity, Table 1, IC50 ± SD) was 215 ± 30.1 nM and the IC50 ([8]; Homo sapiens, MDA-MB-435, read-out: MDA-MB-435 IC50) was 96 ± 5.3 nM.

With `Cc1nc2c(c(N(C)c3ccc(N(C)C)cc3)n1)CCC2` [Compound 9] the IC50 [9] was 11 ± 1 nM, the IC50 [10] was 22.6 ± 2.3 nM and the IC50 [11] was 9.8 ± 0.9 nM. It also gave an IC50 [12] of 13 ± 1 nM.

`COc1ccc(N(C)c2ncnc3ccn(C)c23)cc1` [Table 3a 17] gave an EC50 [6, 28] of 27.5 nM and an IC50 [8, 29] of 13.4 ± 0.5 nM.
